We go through one compound from patent US20210085789A1, “PHARMACEUTICAL COMPOSITION FOR CANCER TREATMENT” (SEOUL NATIONAL UNIVERSITY R&DB FOUNDATION, priority 2017, published 2021).

In the experiment the test system is HeLa cells. Description: CCK-8 cell viability after light irradiation (dose-dependent PDT effect). Conditions: 660 nm LED 30 mW cm−2 for 10 minutes. Type of experiment: cell-based, human. As for the experimental part: In order to determine viability of cells treated with FA-MnO2, HeLa cells (1×10^4 cells/well) were prepared in three (3) 96-well plates for 24 hours, and cultured with FA-MnO2 at different concentrations as well as a complete medium. After incubation for 12 hours, the cells were gently washed with 1×PBS and CCK-8 analysis solution as well as a serum-free medium were added thereto for one hour, followed by measuring absorbance at wavelengths of 450 nm and 670 nm using a micro-plate reader (Molecular Devices, Inc., USA).
Next, in order to determine quantitative cell viability associated with photodynamic effects of FA-MnO2/ZnPc, HeLa cells (1×10^4 cells/well) were seeded on a 96-well plate, incubated for 24 hours, and then, treated with FA-MnO2/ZnPc and ZnPc at various concentrations. After the incubation for 12 hours, each well was irradiated with 660 nm LED (Mikwang Electronics, Korea) at 30 mW cm^−2 for 10 minutes. After additional incubation in a serum-containing medium for 12 hours, analysis of CCK-8 cell vitality was assessed in the same manner as described above.

For the compound `[Zn+2].c1ccc2c(c1)-c1nc-2nc2[n-]c(nc3nc([n-]c4nc(n1)-c1ccccc1-4)-c1ccccc1-3)c1ccccc21` [ZnPc, zinc phthalocyanine], the 50% inhibitory concentration (IC50) – broadly, the concentration at which inhibition is half-maximal – was 115.1 ± 3.4 µg/mL.
